Data published in patent US9828348B2, “Benzimidazole derivatives and use thereof” (priority 2013, dated 2017).
Read-outs that look alike come from different tables or passages of the source.

Molecular target: human Nav1.7 (Homo sapiens (Human), UniProt Q15858)
Assay: FLIPR or FLIPR TETRA sodium dye assay with KCl and test article pre-incubation
Format: cell-based
Settings: read-out: Nav1.7 Activity (μM) FLIPR assay IC50 (μM) ± SEM
[1] = recombinant human Nav1.7 in HEK293 cells, CoroNa Green sodium dye, KCl pre-incubation, veratridine and scorpion venom agonists

human Nav1.7, sequence (Q15858 with tags, fused parts or gaps limits assumed): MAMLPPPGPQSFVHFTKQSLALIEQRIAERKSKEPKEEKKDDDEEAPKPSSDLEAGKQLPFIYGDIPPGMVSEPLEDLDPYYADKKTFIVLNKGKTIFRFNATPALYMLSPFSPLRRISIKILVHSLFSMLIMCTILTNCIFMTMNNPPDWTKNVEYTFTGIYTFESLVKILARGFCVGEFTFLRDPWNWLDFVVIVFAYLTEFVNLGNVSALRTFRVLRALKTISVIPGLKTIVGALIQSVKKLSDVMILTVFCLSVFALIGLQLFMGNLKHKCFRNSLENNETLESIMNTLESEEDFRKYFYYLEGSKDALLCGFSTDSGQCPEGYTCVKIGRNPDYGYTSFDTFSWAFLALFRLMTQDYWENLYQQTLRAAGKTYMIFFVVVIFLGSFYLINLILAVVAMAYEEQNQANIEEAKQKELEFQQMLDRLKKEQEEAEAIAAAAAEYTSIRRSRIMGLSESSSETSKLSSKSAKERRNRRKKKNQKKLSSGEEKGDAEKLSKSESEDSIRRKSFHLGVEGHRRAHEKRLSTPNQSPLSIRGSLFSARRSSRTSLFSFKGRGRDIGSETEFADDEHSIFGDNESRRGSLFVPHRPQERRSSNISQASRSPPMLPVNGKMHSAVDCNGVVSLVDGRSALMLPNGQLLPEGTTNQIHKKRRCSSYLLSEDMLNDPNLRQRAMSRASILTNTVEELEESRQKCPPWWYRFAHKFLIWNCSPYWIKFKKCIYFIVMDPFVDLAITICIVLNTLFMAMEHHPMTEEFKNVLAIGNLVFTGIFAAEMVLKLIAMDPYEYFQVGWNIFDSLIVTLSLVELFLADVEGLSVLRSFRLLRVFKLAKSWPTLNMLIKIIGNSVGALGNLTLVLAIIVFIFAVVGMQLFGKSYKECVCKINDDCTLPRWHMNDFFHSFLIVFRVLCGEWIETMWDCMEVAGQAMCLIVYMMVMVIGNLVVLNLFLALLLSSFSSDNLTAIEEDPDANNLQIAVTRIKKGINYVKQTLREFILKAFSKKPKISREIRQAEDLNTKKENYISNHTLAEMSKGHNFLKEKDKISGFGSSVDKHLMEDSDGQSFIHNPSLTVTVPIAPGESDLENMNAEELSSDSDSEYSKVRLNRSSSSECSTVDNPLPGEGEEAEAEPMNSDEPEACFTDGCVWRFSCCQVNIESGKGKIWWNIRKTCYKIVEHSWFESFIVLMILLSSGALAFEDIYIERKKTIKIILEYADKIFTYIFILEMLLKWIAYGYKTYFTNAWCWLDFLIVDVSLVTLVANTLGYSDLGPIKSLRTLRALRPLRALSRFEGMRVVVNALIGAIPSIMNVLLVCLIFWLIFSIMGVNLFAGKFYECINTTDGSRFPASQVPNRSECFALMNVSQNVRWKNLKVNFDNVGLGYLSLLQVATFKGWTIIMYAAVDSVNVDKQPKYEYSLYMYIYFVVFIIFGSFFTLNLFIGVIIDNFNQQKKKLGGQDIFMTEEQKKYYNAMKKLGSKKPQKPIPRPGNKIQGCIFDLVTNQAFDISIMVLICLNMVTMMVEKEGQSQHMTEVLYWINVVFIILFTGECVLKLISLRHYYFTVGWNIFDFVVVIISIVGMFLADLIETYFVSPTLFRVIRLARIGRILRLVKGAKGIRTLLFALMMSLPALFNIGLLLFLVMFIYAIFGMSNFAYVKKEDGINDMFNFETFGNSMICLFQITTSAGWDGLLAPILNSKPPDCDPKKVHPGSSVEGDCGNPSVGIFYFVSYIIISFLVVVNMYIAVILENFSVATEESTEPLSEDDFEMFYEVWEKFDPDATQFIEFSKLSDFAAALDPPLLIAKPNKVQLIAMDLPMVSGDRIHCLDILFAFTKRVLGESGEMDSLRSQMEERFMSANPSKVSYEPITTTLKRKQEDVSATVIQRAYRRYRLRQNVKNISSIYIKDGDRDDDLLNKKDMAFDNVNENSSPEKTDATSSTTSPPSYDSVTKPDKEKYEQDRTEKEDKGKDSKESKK

Compound	IC50 [1] [µM]	IC50 [µM]
NC(=O)CN1CCC[C@H]1c1nc2ccccc2n1-c1ccc(Oc2ccc(F)cc2)cc1 [Compound 25, (S)-2-(2-(1-(4-(4-fluorophenoxy)phenyl)-1H-benzo[d]imidazol-2-yl)pyrrolidin-1-yl)acetamide]	1.22 ± 0.035	–
NC(=O)CN1CCC(c2nc3ccccc3n2-c2ccc(Oc3ccc(F)cc3)cc2)CC1 [Compound 23, 2-(4-(1-(4-(4-fluorophenoxy)phenyl)-1H-benzo[d]imidazol-2-yl)piperidin-1-yl)acetamide]	1.49 ± 0.225	–
Fc1ccc(Oc2ccc(-n3c(-c4c[nH]cn4)nc4ccccc43)cc2)cc1 [Compound 11, 1-(4-(4-fluorophenoxy)phenyl)-2-(1H-imidazol-4-yl)-1H-benzo[d]imidazole]	–	0.102 ± 0.022
CCN(CC)C(=O)CN1CCC(c2nc3ccccc3n2-c2ccc(Oc3ccc(F)cc3)cc2)CC1 [Compound 24, N,N-diethyl-2-(4-(1-(4-(4-fluorophenoxy)phenyl)-1H-benzo[d]imidazol-2-yl)piperidin-1-yl)acetamide]	0.516 ± 0.029	–
Fc1ccc(Oc2ccc(-n3c(Cc4nnn[nH]4)nc4ccccc43)cc2)cc1 [Compound 15, 2-((1H-tetrazol-5-yl)methyl)-1-(4-(4-fluorophenoxy)phenyl)-1H-benzo[d]imidazole]	> 20	–
O=C1CC[C@@H](c2nc3ccccc3n2-c2ccc(Oc3ccc(F)cc3)cc2)N1 [Compound 14, (S)-5-(1-(4-(4-fluorophenoxy)-phenyl)-1H-benzo[d]imidazol-2-yl)pyrrolidin-2-one]	0.571 ± 0.07	–
Cc1nnc(Cc2nc3ccccc3n2-c2ccc(Oc3ccc(F)cc3)cc2)[nH]1 [Compound 16, 1-(4-(4-fluorophenoxy)phenyl)-2-((5-methyl-4H-1,2,4-triazol-3-yl)methyl)-1H-benzo[d]imidazole]	–	0.957 ± 0.092
Fc1ccc(Oc2ccc(-n3c(CCN4CCCCC4)nc4ccccc43)cc2)cc1 [Compound 17, 1-(4-(4-fluorophenoxy)phenyl)-2-(2-(piperidin-1-yl)ethyl)-1H-benzo[d]imidazole]	0.081 ± 0.009	–
Fc1ccc(Oc2ccc(-n3c(C4CCOCC4)nc4ccccc43)cc2)cc1 [Compound 9, 1-(4-(4-fluorophenoxy)phenyl)-2-(tetrahydro-2H-pyran-4-yl)-1H-benzo[d]imidazole]	0.63 ± 0.05	–
Cn1cc(Cl)c(-c2nc3ccccc3n2-c2ccc(Oc3ccc(F)cc3)cc2)n1 [Compound 10, 2-(4-chloro-1-methyl-1H-pyrazol-3-yl)-1-(4-(4-fluorophenoxy)phenyl)-1H-benzo[d]imidazole]	0.313 ± 0.032	–
